Experimental data as given in PubChem BioAssay AID330 (DTP/NCI, 2004).
Values joined by “and” are separate entries in the source; they are usually repeats but may differ in a detail not shown here. Equal entries are not always repeated. Inconclusive results and toxic doses are left out. Rule for the calls: active = survival T/C of 150% or more; inactive = T/C below 125% in these data.

Tested on: P388 leukemia ip, CD2F1 mice, survival T/C
Assay: NCI In Vivo Anticancer Drug Screen. Data for tumor model P388 Leukemia (intraperitoneal) in CD2F1 (CDF1) mice
Details: endpoint: median survival time, higher = longer survival
Outline: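 Mice carrying the transplanted tumor received test compound or vehicle. Survival was recorded in each group, and the value is the treated-group measurement divided by that of the vehicle-treated control group.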

[1] = dose: 3.12 mg/kg/injection, schedule: Q01DX005 (ip), vehicle: saline
[2] = dose: 6.25 mg/kg/injection, schedule: Q01DX005 (ip), vehicle: saline
[3] = dose: 12.5 mg/kg/injection, schedule: Q01DX005 (ip), vehicle: saline
[4] = dose: 50.0 mg/kg/injection, schedule: Q01DX009 (ip), vehicle: saline with Tween-80
[5] = dose: 100.0 mg/kg/injection, schedule: Q01DX009 (ip), vehicle: saline with Tween-80
[6] = dose: 200.0 mg/kg/injection, schedule: Q01DX009 (ip), vehicle: saline with Tween-80
[7] = dose: 50.0 mg/kg/injection, schedule: Q01DX005 (ip), vehicle: Klucel (hydroxypropylcellulose) (HPC)
[8] = dose: 100.0 mg/kg/injection, schedule: Q01DX005 (ip), vehicle: Klucel (hydroxypropylcellulose) (HPC)
[9] = dose: 200.0 mg/kg/injection, schedule: Q01DX005 (ip), vehicle: Klucel (hydroxypropylcellulose) (HPC)
[10] = dose: 60.0 mg/kg/injection, schedule: Q01DX005 (ip), vehicle: saline with Tween-80
[11] = dose: 120.0 mg/kg/injection, schedule: Q01DX005 (ip), vehicle: saline with Tween-80
[12] = dose: 240.0 mg/kg/injection, schedule: Q01DX005 (ip), vehicle: saline with Tween-80
[13] = dose: 50.0 mg/kg/injection, schedule: Q01DX005 (ip), vehicle: saline with Tween-80
[14] = dose: 100.0 mg/kg/injection, schedule: Q01DX005 (ip), vehicle: saline with Tween-80
[15] = dose: 200.0 mg/kg/injection, schedule: Q01DX005 (ip), vehicle: saline with Tween-80
[16] = dose: 50.0 mg/kg/injection, schedule: Q01DX005 (ip), vehicle: saline
[17] = dose: 100.0 mg/kg/injection, schedule: Q01DX005 (ip), vehicle: saline

Measured: T/C

c1ccc2nc(C[n+]3cccc4ccccc43)ccc2c1
inactive: [1] 105 % of control | [2] 106 % of control | [3] 109 % of control

COc1ccc2c(c1)C1(C)CCN(C)CC(C1)C2O (stereo unspecified)
inactive: [4] 96 % of control and 104 % of control | [5] 91 % of control and 87 % of control | [6] 117 % of control

CCCCCCCCOC(=O)c1ccc(O)cc1
inactive: dose: 12.5 mg/kg/injection, schedule: Q01DX009 (ip), vehicle: saline with Tween-80 99 % of control | dose: 25.0 mg/kg/injection, schedule: Q01DX009 (ip), vehicle: saline with Tween-80 100 % of control | [4] 99 % of control and 96 % of control | [5] 92 % of control

CCOC(=O)c1ccc2c(c1)nc(-c1ccccn1)n2CCc1ccncc1
inactive: dose: 25.0 mg/kg/injection, schedule: Q01DX005 (ip), vehicle: Klucel (hydroxypropylcellulose) (HPC) 103 % of control | [7] 102 % of control | [8] 102 % of control | [9] 94 % of control

CCOc1cc2c3c(c(C)cc2cn1)CCC3=O
inactive: dose: 6.25 mg/kg/injection, schedule: Q01DX009 (ip), vehicle: distilled water + Tween-80 96 % of control | dose: 12.5 mg/kg/injection, schedule: Q01DX009 (ip), vehicle: distilled water + Tween-80 100 % of control | dose: 25.0 mg/kg/injection, schedule: Q01DX009 (ip), vehicle: distilled water + Tween-80 114 % of control | dose: 50.0 mg/kg/injection, schedule: Q01DX009 (ip), vehicle: distilled water + Tween-80 98 % of control and 96 % of control | dose: 100.0 mg/kg/injection, schedule: Q01DX009 (ip), vehicle: distilled water + Tween-80 115 % of control and 87 % of control | dose: 200.0 mg/kg/injection, schedule: Q01DX009 (ip), vehicle: distilled water + Tween-80 118 % of control

CSc1nnc(N)s1
inactive: [4] 106 % of control | [5] 93 % of control | [6] 100 % of control

Nc1ncncc1C(C1=C(O)COC1=O)C1=C(O)COC1=O
inactive: [10] 98 % of control | [11] 100 % of control | [12] 98 % of control

O=C1C(c2ccccc2)=C(c2ccccc2)/C1=C/c1ccc(F)cc1
inactive: dose: 50.0 mg/kg/injection, schedule: Q01DX001 (ip), vehicle: Klucel (hydroxypropylcellulose) (HPC) 112 % of control | dose: 100.0 mg/kg/injection, schedule: Q01DX001 (ip), vehicle: Klucel (hydroxypropylcellulose) (HPC) 106 % of control | dose: 200.0 mg/kg/injection, schedule: Q01DX001 (ip), vehicle: Klucel (hydroxypropylcellulose) (HPC) 118 % of control

c1ccc2c(-c3nccc4ccccc34)nccc2c1
inactive: [13] 99 % of control | [14] 103 % of control | [15] 92 % of control

CC(=O)OC1C(C)OC(OC2C(OC(=O)C3CCC4C(C3)OC3(CC(OC(=O)/C=C/c5ccccc5)C(C)CO3)C43CO3)OC(C)C(OC(C)=O)C2OC(C)=O)C(OC(C)=O)C1OC(C)=O (stereo unspecified)
inactive: dose: 3.0 mg/kg/injection, schedule: Q01DX005 (ip), vehicle: saline 100 % of control | dose: 3.75 mg/kg/injection, schedule: Q01DX009 (ip), vehicle: saline + alcohol 100 % of control | dose: 6.0 mg/kg/injection, schedule: Q01DX005 (ip), vehicle: saline 106 % of control | dose: 7.5 mg/kg/injection, schedule: Q01DX009 (ip), vehicle: saline + alcohol 98 % of control | dose: 12.0 mg/kg/injection, schedule: Q01DX005 (ip), vehicle: saline 99 % of control | dose: 15.0 mg/kg/injection, schedule: Q01DX009 (ip), vehicle: saline + alcohol 102 % of control | dose: 24.0 mg/kg/injection, schedule: Q01DX005 (ip), vehicle: saline 106 % of control | dose: 30.0 mg/kg/injection, schedule: Q01DX009 (ip), vehicle: saline + alcohol 104 % of control

CC1(C)COC(c2ccc(Br)cc2)=N1
inactive: dose: 25.0 mg/kg/injection, schedule: Q01DX009 (ip), vehicle: other 101 % of control | dose: 50.0 mg/kg/injection, schedule: Q01DX009 (ip), vehicle: other 97 % of control | dose: 100.0 mg/kg/injection, schedule: Q01DX009 (ip), vehicle: other 102 % of control | dose: 200.0 mg/kg/injection, schedule: Q01DX009 (ip), vehicle: other 104 % of control

COCC(=O)c1ccc([N+](=O)[O-])cc1
inactive: dose: 50.0 mg/kg/injection, schedule: Q01DX009 (ip), vehicle: saline 98 % of control | dose: 100.0 mg/kg/injection, schedule: Q01DX009 (ip), vehicle: saline 103 % of control and 104 % of control | dose: 200.0 mg/kg/injection, schedule: Q01DX009 (ip), vehicle: saline 105 % of control and 111 % of control

CC[N+](C)(C)c1ccc(C(=C2C=CC(=[N+](C)C)C=C2)c2ccc(N(C)C)cc2)cc1
inactive: [1] 100 % of control | [2] 100 % of control | [3] 104 % of control

O=C(Nc1ccccc1)SCCSC(=S)N1CCCC1
inactive: [7] 103 % of control | [8] 105 % of control | [9] 105 % of control

NC(=O)C(=O)c1c(-c2ccccc2)c(-c2ccccc2)c2n1CCC2
inactive: [7] 100 % of control | [8] 99 % of control | [9] 93 % of control

O=C(Nc1ccc(N=Nc2ccc(S(=O)(=O)O)cc2)cc1)c1ccc(N=Nc2cc(S(=O)(=O)O)c3ccccc3c2O)cc1
inactive: [16] 110 % of control | [17] 104 % of control

O=[N+]([O-])c1ccc(SNc2ccc(NSc3ccc([N+](=O)[O-])cc3)cc2)cc1
inactive: dose: 12.5 mg/kg/injection, schedule: Q01DX001 (ip), vehicle: saline with Tween-80 95 % of control | dose: 25.0 mg/kg/injection, schedule: Q01DX001 (ip), vehicle: saline with Tween-80 100 % of control | dose: 50.0 mg/kg/injection, schedule: Q01DX001 (ip), vehicle: saline with Tween-80 100 % of control

CCCC(O)CNCc1ccnc2ccc(OC)cc12 (stereo unspecified)
inactive: [16] 109 % of control | [17] 98 % of control

N#CC(C#N)=CN
inactive: [4] 94 % of control | [5] 103 % of control | [6] 103 % of control

CC(C)N(C(=O)COc1ccc(Cl)cc1Cl)c1ccccc1
inactive: dose: 100.0 mg/kg/injection, schedule: Q04DX003 (ip), vehicle: saline with Tween-80 104 % of control | dose: 200.0 mg/kg/injection, schedule: Q04DX003 (ip), vehicle: saline with Tween-80 100 % of control | dose: 400.0 mg/kg/injection, schedule: Q04DX003 (ip), vehicle: saline with Tween-80 100 % of control

O=c1cnc(=O)[nH][nH]1
inactive: [10] 103 % of control | [11] 91 % of control | [12] 93 % of control

CCn1c2nc(=O)n(C)c(=O)c-2[n+]([O-])c2cc(Br)c(C)cc21
inactive: dose: 100.0 mg/kg/injection, schedule: Q04DX002 (ip), vehicle: saline with Tween-80 96 % of control | dose: 200.0 mg/kg/injection, schedule: Q04DX002 (ip), vehicle: saline with Tween-80 94 % of control | dose: 400.0 mg/kg/injection, schedule: Q04DX002 (ip), vehicle: saline with Tween-80 96 % of control

Cc1nn(C)c(NC(=O)c2ccccc2O)c1SC#N
inactive: dose: 6.25 mg/kg/injection, schedule: Q01DX005 (ip), vehicle: saline with Tween-80 93 % of control | dose: 12.5 mg/kg/injection, schedule: Q01DX005 (ip), vehicle: saline with Tween-80 93 % of control | dose: 25.0 mg/kg/injection, schedule: Q01DX005 (ip), vehicle: saline with Tween-80 93 % of control

CCC(NC(C)C)C(O)c1ccc(O)c2[nH]c(=O)ccc12 (stereo unspecified)
inactive: dose: 50.0 mg/kg/injection, schedule: Q01DX009 (ip), vehicle: Klucel (hydroxypropylcellulose) (HPC) 104 % of control | dose: 100.0 mg/kg/injection, schedule: Q01DX009 (ip), vehicle: Klucel (hydroxypropylcellulose) (HPC) 99 % of control | dose: 200.0 mg/kg/injection, schedule: Q01DX009 (ip), vehicle: Klucel (hydroxypropylcellulose) (HPC) 96 % of control

O=C1C=CC(=O)C=C1
inactive: dose: 3.12 mg/kg/injection, schedule: Q04DX003 (ip), vehicle: saline with Tween-80 101 % of control | dose: 6.25 mg/kg/injection, schedule: Q04DX003 (ip), vehicle: saline with Tween-80 99 % of control

Nc1cc(-c2ccc(Cl)cc2)nn1-c1nnc(-c2ccccc2)c(-c2ccccc2)n1
inactive: [13] 93 % of control | [14] 100 % of control | [15] 103 % of control
